pIC50: −log10 of the molar value. Counter-ions that a name gives are not always drawn.
Test system: HBsAg
Experiment: HBsAg assay (secreted HBsAg by CLIA in HepG2.2.15 cells)
Type: cell-based, hepatitis B virus (HBV)
Conditions: Hepatitis B virus, HepG2.2.15, 96 h
Description: HepG2.2.15 cells (Sells et al, Proc Natl Acad Sci USA. 1987 February; 84(4):1005-9), a constitutively HBV-expressing cell line, were cultured in DMEM medium supplemented with 10% FBS and 400 μg/mL G418, and maintained in 5% CO2 at 37° C.
HepG2.2.15 cells were seeded into 96-well plates at 3×10^4 cells/well. The next day, the cells were treated with a five-fold serial dilution series of the compound in DMSO. The final DMSO concentration in all wells was 0.5% and 0.5% DMSO was used as no drug control. After four days of incubation with compounds, the supernatants were harvested and measured for HBsAg concentration
The HBsAg chemiluminescence immunoassay (CLIA) kit was used to measure the levels of secreted HBsAg. Specifically, 50 μL of culture supernatant was transferred to the CLIA assay plate and 50 μL of enzyme conjugate reagent was added into each well. The plates were sealed and incubated for 1 hour at room temperature. The supernatant-enzyme-mixture was discarded and wells were washed for 6 times. The residual liquid was removed by plating on tissue paper. 25 μL of substrate A and B were added into each well. Luminance was measured using a spectrometer (Tecan Infinite® F200) after 10 minutes incubation. IC50 value was extrapolated based the dose-response curves generated from the data.

Row | Compound | pIC50
1 | COc1cc2c(cc1-c1cn[nH]c1)CC(C(C)C)n1cc(C(=O)O)c(=O)cc1-2 (centres unmarked) [Example 1, 6-isopropyl-10-methoxy-2-oxo-9-(1H-pyrazol-4-yl)-6,7-dihydro-2H-pyrido[2,1-a]isoquinoline-3-carboxylic acid] | 7.85
2 | COc1cc2c(cc1-c1cnn(CC(F)(F)F)c1)CC(C(C)C)n1cc(C(=O)O)c(=O)cc1-2 (centres unmarked) [Example 2, 6-isopropyl-10-methoxy-2-oxo-9-(1-(2,2,2-trifluoroethyl)-1H-pyrazol-4-yl)-6,7-dihydro-2H-pyrido[2,1-a]isoquinoline-3-carboxylic acid] | 8.10
3 | COCCn1cc(-c2cc3c(cc2OC)-c2cc(=O)c(C(=O)O)cn2C(C(C)C)C3)cn1 (centres unmarked) [Example 3, 6-isopropyl-10-methoxy-9-(1-(2-methoxyethyl)-1H-pyrazol-4-yl)-2-oxo-6,7-dihydro-2H-pyrido[2,1-a]isoquinoline-3-carboxylic acid] | 7.74
4 | COc1cc2c(cc1-c1cnn(CCCO)c1)CC(C(C)C)n1cc(C(=O)O)c(=O)cc1-2 (centres unmarked) [Example 4, 9-(1-(3-hydroxypropyl)-1H-pyrazol-4-yl)-6-isopropyl-10-methoxy-2-oxo-6,7-dihydro-2H-pyrido[2,1-a]isoquinoline-3-carboxxylic acid] | 7.62
5 | COc1cc2c(cc1-c1cnn(CC(C)C)c1)CC(C(C)C)n1cc(C(=O)O)c(=O)cc1-2 (centres unmarked) [Example 5, 9-(1-isobutyl-1H-pyrazol-4-yl)-6-isopropyl-10-methoxy-2-oxo-6,7-dihydro-2H-pyrido[2,1-a]isoquinoline-3-carboxylic acid] | 7.85
6 | CCCn1cc(-c2cc3c(cc2OC)-c2cc(=O)c(C(=O)O)cn2C(C(C)C)C3)cn1 (centres unmarked) [Example 6, 6-isopropyl-10-methoxy-2-oxo-9-(1-propyl-1H-pyrazol-4-yl)-6,7-dihydro-2H-pyrido[2,1-a]isoquinoline-3-carboxylic acid] | 8.22
7 | COc1cc2c(cc1-c1ccc(C)nc1)CC(C(C)C)n1cc(C(=O)O)c(=O)cc1-2 (centres unmarked) [Example 7, 6-isopropyl-10-methoxy-9-(6-methylpyridin-3-yl)-2-oxo-6,7-dihydro-2H-pyrido[2,1-a]isoquinoline-3-carboxylic acid] | 7.44
8 | COc1cc2c(cc1-c1cn[nH]c1)CC(C(C)(C)C)n1cc(C(=O)O)c(=O)cc1-2 (centres unmarked) [Example 8, 6-(tert-butyl)-10-methoxy-2-oxo-9-(1H-pyrazol-4-yl)-6,7-dihydro-2H-pyrido[2,1-a]isoquinoline-3-carboxylic acid] | 8.05
9 | COc1cc2c(cc1-c1cnn(CCCO)c1)CC(C(C)(C)C)n1cc(C(=O)O)c(=O)cc1-2 (centres unmarked) [Example 9, 6-(tert-butyl)-9-(1-(3-hydroxypropyl)-1H-pyrazol-4-yl)-10-methoxy-2-oxo-6,7-dihydro-2H-pyrido[2,1-a]isoquinoline-3-carboxylic acid] | 6.54
10 | COc1cc2c(cc1-c1cnn(CC(F)(F)F)c1)CC(C(C)(C)C)n1cc(C(=O)O)c(=O)cc1-2 (centres unmarked) [Example 10, 6-(tert-butyl)-10-methoxy-2-oxo-9-(1-(2,2,2-trifluoroethyl)-1H-pyrazol-4-yl)-6,7-dihydro-2H-pyrido[2,1-a]isoquinoline-3-carboxylic acid] | 8.22
11 | COc1cc2c(cc1-c1cnn(C3COC3)c1)CC(C(C)(C)C)n1cc(C(=O)O)c(=O)cc1-2 (centres unmarked) [Example 11, 6-(tert-butyl)-10-methoxy-9-(1-(oxetan-3-yl)-1H-pyrazol-4-yl)-2-oxo-6,7-dihydro-2H-pyrido[2,1-a]isoquinoline-2-carboxylic acid] | 8.52
12 | COc1cc2c(cc1-c1cnn(CC(C)O)c1)CC(C(C)(C)C)n1cc(C(=O)O)c(=O)cc1-2 (centres unmarked) [Example 12, 6-(tert-butyl)-9-(1-(2-hydroxypropyl)-1H-pyrazol-4-yl)-10-methoxy-2-oxo-6,7-dihydro-2H-pyrido[2,1-a]isoquinoline-3-carboxylic acid] | 8.70
13 | COc1cc2c(cc1-c1ccnn1C)CC(C(C)(C)C)n1cc(C(=O)O)c(=O)cc1-2 (centres unmarked) [Example 13, 6-(tert-butyl)-10-methoxy-9-(1-methyl-1H-pyrazol-5-yl)-2-oxo-6,7-dihydro-2H-pyrido[2,1-a]isoquinoline-3-carboxylic acid] | 7.74
14 | COc1cc2c(cc1-c1cnn(C(F)F)c1)CC(C(C)(C)C)n1cc(C(=O)O)c(=O)cc1-2 (centres unmarked) [Example 14, 6-(tert-butyl)-9-(1-(difluoromethyl)-1H-pyrazol-4-yl)-10-methoxy-2-oxo-6,7-dihydro-2H-pyrido[2,1-a]isoquinoline-3-carboxylic acid] | 8.70
15 | COc1cc2c(cc1-c1cc(C)nn1C)CC(C(C)(C)C)n1cc(C(=O)O)c(=O)cc1-2 (centres unmarked) [Example 15, 6-(tert-butyl)-9-(1,3-dimethyl-1H-pyrazol-5-yl)-10-methoxy-2-oxo-6,7-dihydro-2H-pyrido[2,1-a]isoquinoline-3-carboxylic acid] | 8.40
16 | COc1cc2c(cc1-c1cnn(CCN3CCOCC3)c1)CC(C(C)(C)C)n1cc(C(=O)O)c(=O)cc1-2 (centres unmarked) [Example 16, 6-(tert-butyl)-10-methoxy-9-(1-(2-morpholinylethyl)-1H-pyrazol-4-yl)-2-oxo-6,7-dihydro-2H-pyrido[2,1-a]isoquinoline-3-carboxylaic acid] | 8.70
17 | COc1cc2c(cc1-c1cnn(C3CCNCC3)c1)CC(C(C)(C)C)n1cc(C(=O)O)c(=O)cc1-2 (centres unmarked) [Example 17, 6-(tert-butyl)-10-methoxy-2-oxo-9-(1-(piperidin-4-yl)-1H-pyrazol-4-yl)-6,7-dihydro-2H-pyrido[2,1-a]isoquinoline-3-carboxylic acid hydrochloride] | 7.60
18 | CCOC(=O)CCn1cc(-c2cc3c(cc2OC)-c2cc(=O)c(C(=O)O)cn2C(C(C)(C)C)C3)cn1 (centres unmarked) [Example 23, 6-(tert-butyl)-9-(1-(3-ethoxy-3-oxopropyl)-1H-pyrazol-4-yl)-10-methoxy-2-oxo-6,7-dihydro-2H-pyrido[2,1-a]isoquinoline-3-carboxylic acid] | 7.40
19 | COc1cc2c(cc1-c1cnn(C(C)C(=O)O)c1)CC(C(C)(C)C)n1cc(C(=O)O)c(=O)cc1-2 (centres unmarked) [Example 26, 6-(tert-butyl)-9-(1-(1-carboxyethyl)-1H-pyrazol-4-yl)-10-methoxy-2-oxo-6,7-dihydro-2H-pyrido[2,1-a]isoquinoline-3-carboxylic acid] | 8.10
20 | COc1cc2c(cc1-c1cnn(C(C)(C)C(=O)O)c1)CC(C(C)(C)C)n1cc(C(=O)O)c(=O)cc1-2 (centres unmarked) [Example 27, 6-(tert-butyl)-9-(1-(2-carboxyprop-2-yl)-1H-pyrazol-4-yl)-10-methoxy-2-oxo-6,7-dihydro-2H-pyrido[2,1-a]isoquinoline-3-carboxylic acid] | 8.40
21 | COc1cc2c(cc1-c1nc[nH]n1)CC(C(C)(C)C)n1cc(C(=O)O)c(=O)cc1-2 (centres unmarked) [Example 29, 6-(tert-butyl)-10-methoxy-2-oxo-9-(1H-1,2,4-triazol-3-yl)-6,7-dihydro-2H-pyrido[2,1-a]isoquinoline-3-carboxylic acid] | 7.92
22 | COc1cc2c(cc1-c1ncn(CC(=O)O)n1)CC(C(C)(C)C)n1cc(C(=O)O)c(=O)cc1-2 (centres unmarked) [Example 30, 6-(tert-butyl)-9-(1-(carboxymethyl)-1H-1,2,4-triazol-3-yl)-10-methoxy-2-oxo-6,7-dihydro-2H-pyrido[2,1-a]isoquinoline-3-carboxylic acid] | 7.89
23 | COc1cc2c(cc1-c1ccccc1)CC(C(C)(C)C)n1cc(C(=O)O)c(=O)cc1-2 (centres unmarked) [Example 33, 6-(tert-butyl)-10-methoxy-2-oxo-9-phenyl-6,7-dihydro-2H-pyrido[2,1-a]isoquinoline-3-carboxylic acid] | 7.70
24 | CCc1ccc(-c2cc3c(cc2OC)-c2cc(=O)c(C(=O)O)cn2C(C(C)(C)C)C3)cc1 (centres unmarked) [Example 34, 6-(tert-butyl)-9-(4-ethylphenyl)-10-methoxy-2-oxo-6,7-dihydro-2H-pyrido[2,1-a]isoquinoline-3-carboxylic acid] | 7.44
25 | COc1ccc(-c2cc3c(cc2OC)-c2cc(=O)c(C(=O)O)cn2C(C(C)(C)C)C3)cc1 (centres unmarked) [Example 35, 6-(tert-butyl)-10-methoxy-9-(4-methoxyphenyl)-2-oxo-6,7-dihydro-2H-pyrido[2,1-a]isoquinoline-3-carboxylic acid] | 6.54
26 | COc1cccc(-c2cc3c(cc2OC)-c2cc(=O)c(C(=O)O)cn2C(C(C)(C)C)C3)c1 (centres unmarked) [Example 36, 6-(tert-butyl)-10-methoxy-9-(3-methoxyphenyl)-2-oxo-6,7-dihydro-2H-pyrido[2,1-a]isoquinoline-3-carboxylic acid] | 8.00
27 | COc1cc2c(cc1-c1ccnc(C)c1)CC(C(C)(C)C)n1cc(C(=O)O)c(=O)cc1-2 (centres unmarked) [Example 38, 6-(tert-butyl)-10-methoxy-9-(2-methylpyridin-4-yl)-2-oxo-6,7-dihydro-2H-pyrido[2,1-a]isoquinoline-3-carboxylic acid] | 8.30
28 | COc1cc2c(cc1-c1cccnc1C)CC(C(C)(C)C)n1cc(C(=O)O)c(=O)cc1-2 (centres unmarked) [Example 39, 6-(tert-butyl)-10-methoxy-9-(2-methylpyridin-3-yl)-2-oxo-6,7-dihydro-2H-pyrido[2,1-a]isoquinoline-3-carboxylic acid] | 7.60
29 | COc1cc2c(cc1-c1ccc(N3CCOCC3)nc1)CC(C(C)(C)C)n1cc(C(=O)O)c(=O)cc1-2 (centres unmarked) [Example 40, 6-(tert-butyl)-10-methoxy-9-(6-morpholinylpyridin-3-yl)-2-oxo-6,7-dihydro-2H-pyrido[2,1-a]isoquinoline-3-carboxylic acid] | 8.22
